Measured values taken from the supplement of paper PMC10307832.

Tests used:
Assay in all cases: relative viability (nuclei count vs DMSO), 5 days (fraction); higher = more cells survive
SK-LU-1 = tested on: SK-LU-1
Outline: (§1)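 Values are medians from duplicate plates. Each reflects relative viability, defined as the nuclei count of treated wells over that of vehicle wells. Lung cancer cell lines in 1536-well plates were pin-tool dosed one day after seeding with one drug alone or with a fixed anchor-drug dose plus five library-drug doses (not always all listed) in √10 steps, then fixed, stained and imaged at 4× after 5 days.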

LCLC-97TM1 = tested on: LCLC-97TM1
Outline: as §1

NCI-H1650 = tested on: NCI-H1650
Outline: as §1

CAL-12T = tested on: CAL-12T
Outline: as §1

NCI-H3122 = tested on: NCI-H3122
Outline: as §1

NCI-H322M = tested on: NCI-H322M
Outline: as §1

LXF-289 = tested on: LXF-289
Outline: as §1

LCLC-103H = tested on: LCLC-103H
Outline: as §1

HOP-62 = tested on: HOP-62
Outline: as §1

NCI-H1437 = tested on: NCI-H1437
Outline: as §1

NCI-H647 = tested on: NCI-H647
Outline: as §1

NCI-H2405 = tested on: NCI-H2405
Outline: as §1

HCC-44 = tested on: HCC-44
Outline: as §1

NCI-H2087 = tested on: NCI-H2087
Outline: as §1

NCI-H1395 = tested on: NCI-H1395
Outline: as §1

BEN = tested on: BEN
Outline: as §1

201T = tested on: 201T
Outline: as §1

NCI-H1944 = tested on: NCI-H1944
Outline: as §1

NCI-H727 = tested on: NCI-H727
Outline: as §1

HCC-827 = tested on: HCC-827
Outline: as §1

NCI-H1793 = tested on: NCI-H1793
Outline: as §1

NCI-H2228 = tested on: NCI-H2228
Outline: as §1

RERF-LC-KJ = tested on: RERF-LC-KJ
Outline: as §1

C=C1C(=O)O[C@@H](CCCCCCCC)[C@@H]1C(=O)O [C-75] + N=C(N)NC(=N)NCCc1ccccc1 [Phenformin] (partner 250 µM)
relative viability (SK-LU-1; first compound 0.08 µM): 0.52 | relative viability (SK-LU-1; first compound 0.253 µM): 0.524 | relative viability (SK-LU-1; first compound 0.8 µM): 0.515 | relative viability (SK-LU-1; first compound 2.53 µM): 0.425 | relative viability (SK-LU-1; first compound 8 µM): 0.423 | relative viability (LCLC-97TM1; first compound 0.08 µM): 0.421 | relative viability (LCLC-97TM1; first compound 0.253 µM): 0.487 | relative viability (LCLC-97TM1; first compound 0.8 µM): 0.355 | relative viability (LCLC-97TM1; first compound 2.53 µM): 0.372 | relative viability (LCLC-97TM1; first compound 8 µM): 0.431 | relative viability (NCI-H1650; first compound 0.08 µM): 0.47 | relative viability (NCI-H1650; first compound 0.253 µM): 0.502 | relative viability (NCI-H1650; first compound 2.53 µM): 0.448 | relative viability (NCI-H1650; first compound 8 µM): 0.491 | relative viability (CAL-12T; first compound 0.08 µM): 0.545 | relative viability (CAL-12T; first compound 0.253 µM): 0.746 | relative viability (CAL-12T; first compound 0.8 µM): 0.567 | relative viability (CAL-12T; first compound 2.53 µM): 0.556 | relative viability (CAL-12T; first compound 8 µM): 0.515 | relative viability (NCI-H3122; first compound 0.08 µM): 0.405 | relative viability (NCI-H3122; first compound 0.253 µM): 0.406 | relative viability (NCI-H3122; first compound 0.8 µM): 0.384 | relative viability (NCI-H3122; first compound 8 µM): 0.408 | relative viability (NCI-H322M; first compound 0.08 µM): 0.749 | relative viability (NCI-H322M; first compound 0.253 µM): 0.886 | relative viability (NCI-H322M; first compound 0.8 µM): 0.781 | relative viability (NCI-H322M; first compound 2.53 µM): 0.718 | relative viability (NCI-H322M; first compound 8 µM): 0.789 | relative viability (LXF-289; first compound 0.08 µM): 0.504 | relative viability (LXF-289; first compound 0.253 µM): 0.543 | relative viability (LXF-289; first compound 0.8 µM): 0.514 | relative viability (LXF-289; first compound 2.53 µM): 0.452 | relative viability (LXF-289; first compound 8 µM): 0.507 | relative viability (LCLC-103H; first compound 0.08 µM): 0.325 | relative viability (LCLC-103H; first compound 0.253 µM): 0.35 | relative viability (LCLC-103H; first compound 0.8 µM): 0.311 | relative viability (LCLC-103H; first compound 2.53 µM): 0.253 | relative viability (LCLC-103H; first compound 8 µM): 0.389 | relative viability (HOP-62; first compound 0.08 µM): 0.691 | relative viability (HOP-62; first compound 0.253 µM): 0.718 | relative viability (HOP-62; first compound 0.8 µM): 0.647 | relative viability (HOP-62; first compound 2.53 µM): 0.616 | relative viability (HOP-62; first compound 8 µM): 0.601 | relative viability (NCI-H1437; first compound 0.08 µM): 0.322 | relative viability (NCI-H1437; first compound 0.253 µM): 0.323 | relative viability (NCI-H1437; first compound 0.8 µM): 0.302 | relative viability (NCI-H1437; first compound 2.53 µM): 0.284 | relative viability (NCI-H1437; first compound 8 µM): 0.296 | relative viability (NCI-H647; first compound 0.08 µM): 0.52 | relative viability (NCI-H647; first compound 0.253 µM): 0.58 | relative viability (NCI-H647; first compound 0.8 µM): 0.417 | relative viability (NCI-H647; first compound 2.53 µM): 0.374 | relative viability (NCI-H647; first compound 8 µM): 0.382 | relative viability (NCI-H2405; first compound 0.08 µM): 0.387 | relative viability (NCI-H2405; first compound 0.253 µM): 0.331 | relative viability (NCI-H2405; first compound 0.8 µM): 0.405 | relative viability (NCI-H2405; first compound 2.53 µM): 0.368 | relative viability (NCI-H2405; first compound 8 µM): 0.45 | relative viability (HCC-44; first compound 0.08 µM): 0.294 | relative viability (HCC-44; first compound 0.253 µM): 0.185 | relative viability (HCC-44; first compound 0.8 µM): 0.176 | relative viability (HCC-44; first compound 2.53 µM): 0.157 | relative viability (HCC-44; first compound 8 µM): 0.142 | relative viability (NCI-H2087; first compound 0.08 µM): 0.409 | relative viability (NCI-H2087; first compound 0.253 µM): 0.597 | relative viability (NCI-H2087; first compound 0.8 µM): 0.428 | relative viability (NCI-H2087; first compound 2.53 µM): 0.279 | relative viability (NCI-H2087; first compound 8 µM): 0.48 | relative viability (NCI-H1395; first compound 0.08 µM): 0.452 | relative viability (NCI-H1395; first compound 0.253 µM): 0.454 | relative viability (NCI-H1395; first compound 0.8 µM): 0.435 | relative viability (NCI-H1395; first compound 2.53 µM): 0.45 | relative viability (NCI-H1395; first compound 8 µM): 0.514 | relative viability (BEN; first compound 0.08 µM): 0.266 | relative viability (BEN; first compound 0.253 µM): 0.274 | relative viability (BEN; first compound 0.8 µM): 0.297 | relative viability (BEN; first compound 8 µM): 0.258 | relative viability (201T; first compound 0.08 µM): 0.42 | relative viability (201T; first compound 0.253 µM): 0.484 | relative viability (201T; first compound 0.8 µM): 0.425 | relative viability (201T; first compound 2.53 µM): 0.43 | relative viability (201T; first compound 8 µM): 0.459 | relative viability (NCI-H1944; first compound 0.08 µM): 0.21 | relative viability (NCI-H1944; first compound 0.253 µM): 0.163 | relative viability (NCI-H1944; first compound 0.8 µM): 0.179 | relative viability (NCI-H1944; first compound 8 µM): 0.187 | relative viability (NCI-H727; first compound 0.08 µM): 0.62 | relative viability (NCI-H727; first compound 0.253 µM): 0.879 | relative viability (NCI-H727; first compound 0.8 µM): 0.537 | relative viability (NCI-H727; first compound 8 µM): 0.65 | relative viability (HCC-827; first compound 0.08 µM): 0.428 | relative viability (HCC-827; first compound 0.253 µM): 0.391 | relative viability (HCC-827; first compound 0.8 µM): 0.38 | relative viability (HCC-827; first compound 2.53 µM): 0.36 | relative viability (HCC-827; first compound 8 µM): 0.42 | relative viability (NCI-H1793; first compound 0.08 µM): 0.365 | relative viability (NCI-H1793; first compound 0.253 µM): 0.362 | relative viability (NCI-H1793; first compound 0.8 µM): 0.287 | relative viability (NCI-H1793; first compound 2.53 µM): 0.29 | relative viability (NCI-H1793; first compound 8 µM): 0.486 | relative viability (NCI-H2228; first compound 0.08 µM): 0.294 | relative viability (NCI-H2228; first compound 0.253 µM): 0.304 | relative viability (NCI-H2228; first compound 0.8 µM): 0.33 | relative viability (NCI-H2228; first compound 2.53 µM): 0.244 | relative viability (NCI-H2228; first compound 8 µM): 0.277 | relative viability (RERF-LC-KJ; first compound 0.08 µM): 0.427 | relative viability (RERF-LC-KJ; first compound 0.253 µM): 0.452 | relative viability (RERF-LC-KJ; first compound 0.8 µM): 0.398 | relative viability (RERF-LC-KJ; first compound 2.53 µM): 0.469 | relative viability (RERF-LC-KJ; first compound 8 µM): 0.405
